Laboratory results as given in patent EP4725941A1, “ARYLAMIDE DERIVATIVE HAVING ANTITUMOR ACTIVITY” (priority 2020, dated 2021).
Where two headings read alike, the source gives them in different places.

Columns and labels:
MEK1 = target: T1, MEK1 (Homo sapiens, UniProt Q02750); experiment: MEK1-inhibiting activity, fluorescent polarization method (CRAF/MEK1/ERK2 cascade, IMAP); format: biochemical; settings: Table 3; read-out: MEK1 IC50
T1 construct: purchased Thermo Fisher Scientific Inc. (MEK1, CRAF); Carna Biosciences, Inc. (ERK2)
Description: The MEK1-inhibiting activity of the compounds listed in Table 3 below were evaluated by the fluorescent polarization method as described below.

BRAF = target: T2, BRAF (Homo sapiens, UniProt P15056); experiment: BRAF-inhibiting activity, time-resolved fluorescence-fluorescence resonance energy transfer assay; format: biochemical
T2 construct: purchased Eurofins Genomics KK; (BRAF); Thermo Fisher Scientific Inc. (MEK1)
Description: The BRAF-inhibiting activity of the compounds listed in Table 3 below was evaluated by the time-resolved fluorescence-fluorescence resonance energy transfer assay as described below.

A549 = experiment: Cell proliferation-inhibiting activity (ATP in viable cells, CellTiter-Glo), A549; format: cell-based, human; settings: human lung cancer cells, 4 days, read-out: A549 IC50
Calu-6 = experiment: Cell proliferation-inhibiting activity (ATP in viable cells, CellTiter-Glo), Calu-6; format: cell-based, human; settings: read-out: Calu-6 IC50
NCI-H2122 = experiment: Cell proliferation-inhibiting activity (ATP in viable cells, CellTiter-Glo), NCI-H2122; format: cell-based, human; settings: read-out: NCI-H2122 IC50
[1] = Human liver microsome stability; format: in vitro ADME; settings: human liver microsomes, pH 7.4
[2] = human lung cancer cells, 4 days
[3] = Calu-6, 96 h, human lung cancer cells, 4 days
[4] = NCI-H2122, 96 h, human lung cancer cells, 4 days

T2 sequence (P15056 417-766 limits assumed): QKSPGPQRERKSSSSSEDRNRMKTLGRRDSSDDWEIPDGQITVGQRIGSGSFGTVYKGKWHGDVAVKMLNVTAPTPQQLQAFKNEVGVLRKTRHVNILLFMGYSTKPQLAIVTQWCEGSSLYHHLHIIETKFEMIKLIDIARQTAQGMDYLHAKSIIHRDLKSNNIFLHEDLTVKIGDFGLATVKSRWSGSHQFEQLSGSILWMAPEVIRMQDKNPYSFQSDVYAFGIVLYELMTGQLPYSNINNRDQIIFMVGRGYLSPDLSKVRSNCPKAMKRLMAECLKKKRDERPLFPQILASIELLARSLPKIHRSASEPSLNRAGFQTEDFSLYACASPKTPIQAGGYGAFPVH
T1 sequence (Q02750 whole entry): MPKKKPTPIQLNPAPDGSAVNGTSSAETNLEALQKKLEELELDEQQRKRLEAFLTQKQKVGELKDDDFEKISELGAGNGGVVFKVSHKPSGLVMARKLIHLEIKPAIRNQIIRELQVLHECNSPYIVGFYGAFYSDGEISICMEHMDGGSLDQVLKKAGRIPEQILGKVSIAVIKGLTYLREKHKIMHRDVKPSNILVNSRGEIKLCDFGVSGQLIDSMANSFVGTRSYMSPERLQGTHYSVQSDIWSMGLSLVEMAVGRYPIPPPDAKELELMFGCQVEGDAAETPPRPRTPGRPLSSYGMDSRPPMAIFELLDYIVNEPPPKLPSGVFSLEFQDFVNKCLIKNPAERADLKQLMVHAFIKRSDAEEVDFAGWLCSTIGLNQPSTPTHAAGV

Row | Structure (SMILES) | IC50 (MEK1) | IC50 (BRAF; Table 3; read-out: BRAF IC50) | IC50 (A549) | IC50 (Calu-6; [2]) | IC50 (NCI-H2122; [2]) | IC50 (BRAF; read-out: BRAF IC50; Table 3) | IC50 (Calu-6; [3]) | IC50 (NCI-H2122; [4]) | microsomal CLint at 0.99 µM [1] | IC50 (Calu-6; Homo sapiens, Calu-6, 96 h) | IC50 (NCI-H2122; Homo sapiens, NCI-H2122, 96 h) | IC50 (A549; A549, 96 h)
1 | CCS(=O)(=O)Nc1cccc(Cc2cc(C(=O)NOC(C)(C)C)c(Nc3ccc(I)cc3F)n(C)c2=O)c1F [Compound K-9] | 23 nM | 8 nM | 17 nM | 34 nM | 8 nM |  |  |  |  |  |  | 
2 | CONC(=O)c1cc(Cc2ccnc(NS(C)(=O)=O)c2F)c(F)c(F)c1Nc1ccc(I)cc1F [Compound B-15, 3,4-Difluoro-2-(2-fluoro-4-iodoanilino)-5-[[3-fluoro-2-(methanesulfonamide)pyridin-4-yl]methyl]-N-methoxybenzamide] | 8 nM |  |  |  |  | 4 nM | 60 nM | 6 nM | 13 µL/min/mg |  |  | 
3 | CNS(=O)(=O)Nc1nccc(Cn2cc(C(=O)NC3CC3)c(Nc3ccc(I)cc3F)c(C)c2=O)c1F [Compound P-6, N-Cyclopropyl-4-(2-fluoro-4-iodoanilino)-1-[[3-fluoro-2-(methylsulfamoylamino)pyridin-4-yl]methyl]-5-methyl-6-oxopyridine-3-carboxamide] | 13 nM |  |  |  |  | 9 nM | 8 nM | 4 nM | 4 µL/min/mg |  |  | 
4 | COCCNS(=O)(=O)Nc1nccc(Cc2cc(C(=O)NC3CC3)c(Nc3ccc(I)cc3F)n(C)c2=O)c1F [Compound J-7, N-Cyclopropyl-2-(2-fluoro-4-iodoanilino)-5-[[3-fluoro-2-(2-methoxyethylsulfamoylamino)pyridin-4-yl]methyl]-1-methyl-6-oxopyridine-3-car boxamide] | 627 nM |  |  |  |  | 12 nM | 380 nM | 29 nM | 30 µL/min/mg |  |  | 
5 | CCS(=O)(=O)Nc1nccc(Cn2cc(C(=O)NC3CC3)c(Nc3ccc(I)cc3F)c(C)c2=O)c1F [Compound P-4, N-Cyclopropyl-1-[[2-(ethylsulfonylamino)-3-fluoropyridin-4-yl]methyl]-4-(2-fluoro-4-iodoanilino)-5-methyl-6-oxopyridine-3-carboxamide] | 34 nM |  |  |  |  | 16 nM | 45 nM | 24 nM | 1 µL/min/mg |  |  | 
6 | CS(=O)(=O)Nc1cccc(Cc2cc(C(N)=O)c(Nc3ccc(I)cc3F)c(F)c2F)c1F [Compound E-13, 3,4-difluoro-2-(2-fluoro-4-iodoanilino)-5-[[2-fluoro-3-(methanesulfonamide)phenyl]methyl]benzamide] |  |  | 30 nM | 84 nM | 6 nM | 1 nM |  |  |  |  |  | 
7 | CNS(=O)(=O)Nc1cccc(Cc2cc(C(=O)NOC)c(Nc3ccc(C4CC4)cc3F)c(F)c2F)c1F [Compound D-16, 2-(4-Cyclopropyl-2-fluoroanilino)-3,4-difluoro-5-[[2-fluoro-3-(methylsulfamoylamino)phenyl]methyl]-N-methoxybenzamide] | 48 nM | 6 nM |  |  |  |  |  |  | 51 µL/min/mg | 17 nM | 1 nM | 
8 | CCS(=O)(=O)Nc1nccc(Cc2cc(C(=O)NOC)c(Nc3ccc(I)cc3F)c(F)c2F)c1F [Compound B-16, 5-[[2-(ethylsulfonylamino)-3-fluoropyridin-4-yl]methyl]-3,4-difl uoro-2-(2-fluoro-4-iodoanilino)-N-methoxybenzamide] | 4 nM |  |  |  |  | 12 nM | 9 nM | 1 nM | 10 µL/min/mg |  |  | 
9 | CONC(=O)c1cc(Cc2ccnc(NS(C)(=O)=O)c2F)c(F)c(F)c1Nc1ccc(C2CC2)cc1F [Compound G-9, 2-(4-Cyclopropyl-2-fluoroanilino)-3,4-difluoro-5-[[3-fluoro-2-(methanesulfonamide)pyridin-4-yl]methyl]-N-methoxybenzamide] | 230 nM | 13 nM |  |  |  |  |  |  | 22 µL/min/mg | 444 nM | 67 nM | 
10 | CCS(=O)(=O)Nc1nccc(Cc2cc(C(=O)NC3CC3)c(Nc3ccc(I)cc3F)c(F)c2F)c1F [Compound A-39] | 41 nM |  |  |  |  | 14 nM | 79 nM | 7 nM |  |  |  | 30 nM
11 | CNS(=O)(=O)Nc1cccc(Cc2cc(C(N)=O)c(Nc3ccc(C4CC4)cc3F)c(F)c2F)c1F [Compound D-14, 2-(4-Cyclopropyl-2-fluoroanilino)-3,4-difluoro-5-[[2-fluoro-3-(methylsulfamoylamino)phenyl]methyl]benzamide] | 1600 nM | 7 nM |  |  |  |  |  |  | 15 µL/min/mg | 117 nM | 10 nM | 
12 | CONC(=O)c1cc(Cc2cccc(NS(N)(=O)=O)c2F)c(F)c(F)c1Nc1ccc(I)cc1F [Compound D-12, 3,4-Difluoro-2-(2-fluoro-4-iodoanilino)-5-[[2-fluoro-3-(sulfamoylamino)phenyl]methyl]-N-methoxybenzamide] | 15 nM |  |  |  |  | 14 nM | 6 nM | 0.4 nM | 18 µL/min/mg |  |  | 
13 | CC1(NS(=O)(=O)Nc2cccc(Cc3cc(C(N)=O)c(Nc4ccc(I)cc4F)c(F)c3F)c2F)CCC1 [Compound D-9, 3,4-Difluoro-2-(2-fluoro-4-iodoanilino)-5-[[2-fluoro-3-[(1-methylcyclobutyl)sulfamoylamino]phenyl]methyl]benzamide] | 252 nM |  |  |  |  | 24 nM | 28 nM | 3 nM | 53 µL/min/mg |  |  | 
14 | CNS(=O)(=O)Nc1cccc(Cc2cc(C(=O)NOC)c(Nc3ccc(I)cc3F)c(F)c2F)c1F [Compound D-11, 3,4-Difluoro-2-(2-fluoro-4-iodoanilino)-5-[[2-fluoro-3-(methylsulfamoylamino)phenyl]methyl]-N-methoxybenzamide] | 6 nM |  |  |  |  | 3 nM | 2 nM | 0.3 nM | 24 µL/min/mg |  |  | 
15 | CS(=O)(=O)Nc1nccc(Cc2cc(C(=O)NC3CC3)c(Nc3ccc(I)cc3F)c(F)c2F)c1F [Compound B-14, N-Cyclopropyl-3,4-difluoro-2-(2-fluoro-4-iodoanilino)-5-[[3-fluoro-2-(methanesulfonamide)pyridin-4-yl]methyl]benzamide] | 104 nM |  |  |  |  | 13 nM | 74 nM | 11 nM | 4 µL/min/mg |  |  | 
16 | CONC(=O)c1cc(Cc2cccc(NS(C)(=O)=O)c2F)c(F)c(F)c1Nc1ccc(I)cc1F [Compound E-26, 3,4-Difluoro-2-(2-fluoro-4-iodoanilino)-5-[[2-fluoro-3-(methanesulfonamide)phenyl]methyl]-N-methoxybenzamide] | 13 nM |  |  |  |  | 6 nM | 5 nM | 0.6 nM | 13 µL/min/mg |  |  | 
17 | CCS(=O)(=O)Nc1nccc(Cc2cc(C(=O)NOC)c(Nc3ccc(C4CC4)cc3F)c(F)c2F)c1F [Compound G-8, 2-(4-Cyclopropyl-2-fluoroanilino)-5-[[2-(ethylsulfonylamino)-3-fluoropyridin-4-yl]methyl]-3,4-difluoro-N-methoxybenzamide] | 53 nM | 7 nM |  |  |  |  |  |  | 26 µL/min/mg | 232 nM | 25 nM | 
18 | CNS(=O)(=O)Nc1nccc(Cn2cc(C(=O)NOC)c(Nc3ccc(I)cc3F)c(C)c2=O)c1F [Compound P-7, 4-(2-Fluoro-4-iodoanilino)-1-[[3-fluoro-2-(methylsulfamoylamino)pyridin-4-yl]methyl]-N-methoxy-5-methyl-6-oxopyridine-3-carboxamide] | 7 nM |  |  |  |  | 7 nM | 72 nM | 7 nM | 12 µL/min/mg |  |  | 
19 | COCC1(S(=O)(=O)Nc2cccc(Cc3cc(C(=O)NOC)c(Nc4ccc(I)cc4F)c(F)c3F)c2F)CC1 [Compound E-3] | 33 nM | 5 nM | 4 nM | 7 nM | 2 nM |  |  |  |  |  |  | 
20 | CNS(=O)(=O)Nc1nccc(Cc2c(C)c3ccc(Oc4ncccn4)cc3oc2=O)c1F [Ref-5, 3-[[3-Fluoro-2-(methylsulfamoylamino)pyridin-4-yl]methyl]-4-methyl-7-pyrimidin-2-yloxychromen-2-one, reference compound] |  |  |  |  |  | 11 nM | 418 nM | 27 nM | < 1 µL/min/mg |  |  | 113 nM
21 | CONC(=O)c1cc(Cc2cccc(NS(=O)(=O)NC3(C)CCC3)c2F)c(F)c(F)c1Nc1ccc(I)cc1F [Compound D-13, 3,4-Difluoro-2-(2-fluoro-4-iodoanilino)-5-[[2-fluoro-3-[(1-methylcyclobutyl)sulfamoylamino]phenyl]methyl]-N-methoxybenzamide] | 29 nM |  |  |  |  | 18 nM | 6 nM | 1 nM | 88 µL/min/mg |  |  | 
22 | CONC(=O)c1cc(Cc2ccnc(NS(=O)(=O)NC3(C)CCC3)c2F)c(F)c(F)c1Nc1ccc(C2CC2)cc1F [Compound G-6, 2-(4-Cyclopropyl-2-fluoroanilino)-3,4-difluoro-5-[[3-fluoro-2-[(1-methylcyclobutyl)sulfamoylamino]pyridin-4-yl]methyl]-N-methoxybenzamide] | 32 nM |  |  |  |  | 15 nM | 23 nM | 2 nM | 57 µL/min/mg |  |  | 
